Results as given in patent US8440686B2, “Nalmefene prodrugs” (Janssen Pharmaceutica NV, priority 2008, dated 2013).

Assay: In vivo PK studies in dog (oral administration): plasma levels of nalmefene
Details: oral administration of nalmefene itself
Protocol: C.2. In vivo PK Studies in Dog (Oral Administration): Plasma Levels of Nalmefene
Doses at 10 mg/kg or 20 mg/kg body weight of a compound of formula (I) or of nalmefene itself in a solution of 20% HP-β-CD (hydroxypropyl-β-cyclodextrines) were used and orally administered to dogs.
Blood samples were taken over a period of 192 hours after oral administration. Blood samples were processed to obtain plasma. Plasma samples were analysed individually for nalmefene by means of a qualified LC-MS/MS-method.

Question: Which “time for which plasma levels of nalmefene can be measured after oral administration” value does the source give for C=C1CC[C@@]2(O)[C@H]3Cc4ccc(O)c5c4[C@@]2(CCN3CC2CC2)[C@H]1O5 [nalmefene, 17-cyclopropylmethyl-4,5α-epoxy-6-methylenemorphinan-3,14-diol] here?
Answer: a few hours
